Laboratory results from PMC3945162 (Psychopharmacology, 2013).
Several values for one entry are separate records, joined by “and”; a condition that tells them apart may be missing. Equal values may be shown once. Read-outs that look alike come from different tables or passages of the source.

What was measured:
[1] = tested on: Male Swiss–Webster mice; test: Locomotor activity; type: in vivo, mouse
[2] = tested on: rats trained to discriminate DMT (5 mg/kg) from saline; type: in vivo, rat; conditions: for Dose(s) that decreased response rate: rat, in vivo
[3] = tested on: rats trained to discriminate DOM (0.5 mg/kg) from saline; type: in vivo, rat; conditions: for Maximum %DAR (drug-appropriate responding): i.p., at dose of maximum DAR
[4] = tested on: rats trained to discriminate LSD (0.1 mg/kg) from saline; type: in vivo, rat; conditions: for Rate of responding at dose of maximum DAR / Maximum %DAR (drug-appropriate responding): LSD-trained rats; for Maximum %DAR (drug-appropriate responding): i.p., at dose of maximum DAR
[5] = tested on: rats trained to discriminate MDMA (1.5 mg/kg) from saline; type: in vivo, rat; conditions: for Rate of responding at dose of maximum DAR / Maximum %DAR (drug-appropriate responding): MDMA-trained rats; for Maximum %DAR (drug-appropriate responding): i.p., at dose of maximum DAR; for Dose(s) that decreased response rate: rat, in vivo
[6] = tested on: rats trained to discriminate METH (1 mg/kg) from saline; type: in vivo, rat
[7] = tested on: Male Sprague-Dawley rats; test: Adverse effects observed during drug discrimination test sessions; type: in vivo, rat; conditions: 25 mg/kg i.p.
[8] = target: T1, human 5-HT1A receptor (Homo sapiens, UniProt P08908); test: [3H]8-OH-DPAT binding, HEK-5-HT1A
T1 sequence (P08908 1-422): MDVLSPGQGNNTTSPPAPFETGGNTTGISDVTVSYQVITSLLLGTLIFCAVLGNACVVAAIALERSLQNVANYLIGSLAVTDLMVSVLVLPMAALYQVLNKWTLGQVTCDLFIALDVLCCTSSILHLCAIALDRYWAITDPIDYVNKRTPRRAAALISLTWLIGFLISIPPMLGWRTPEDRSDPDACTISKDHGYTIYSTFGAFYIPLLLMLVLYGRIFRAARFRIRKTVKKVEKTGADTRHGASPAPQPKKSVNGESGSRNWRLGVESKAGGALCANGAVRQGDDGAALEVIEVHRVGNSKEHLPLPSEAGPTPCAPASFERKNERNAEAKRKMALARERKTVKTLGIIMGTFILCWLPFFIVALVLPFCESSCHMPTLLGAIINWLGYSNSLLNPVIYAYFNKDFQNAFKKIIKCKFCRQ

[9] = target: T1, human 5-HT1A receptor; test: [35S]GTPγS binding functional assay, HEK-5-HT1A; type: biochemical; conditions: for Emax: read-out: 5-HT1A Function [35S]GTPγS Binding % maximal effect
[10] = target: T2, human 5-HT2A receptor (Homo sapiens, UniProt P28223); test: [125I]DOI binding, HEK-5-HT2A cells
[11] = target: T2, human 5-HT2A receptor; test: [3H]AA release from HEK-5-HT2A cells; type: cell-based; conditions: for Emax: read-out: 5-HT2A Function [3H]AA release % maximal effect
[12] = target: T2, human 5-HT2A receptor; test: IP-1 formation, HEK-5-HT2A cells; type: cell-based; conditions: for Emax: read-out: 5-HT2A Function IP-1 formation % maximal effect
[13] = target: T3, human 5-HT2C receptor (Homo sapiens, UniProt P28335); test: biochemical; type: binding
T3 sequence (P28335 33-458): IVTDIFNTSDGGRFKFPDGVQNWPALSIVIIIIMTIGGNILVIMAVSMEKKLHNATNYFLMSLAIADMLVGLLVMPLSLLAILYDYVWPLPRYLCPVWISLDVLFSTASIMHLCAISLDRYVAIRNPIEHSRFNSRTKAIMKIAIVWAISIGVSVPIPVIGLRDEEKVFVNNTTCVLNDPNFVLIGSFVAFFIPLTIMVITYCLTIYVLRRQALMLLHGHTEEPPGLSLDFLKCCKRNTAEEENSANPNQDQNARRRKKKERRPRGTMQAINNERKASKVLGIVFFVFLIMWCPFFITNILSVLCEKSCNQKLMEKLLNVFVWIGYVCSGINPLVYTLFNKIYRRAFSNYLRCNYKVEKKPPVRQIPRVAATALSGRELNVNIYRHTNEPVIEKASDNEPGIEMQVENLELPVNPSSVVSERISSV

[14] = target: T3, human 5-HT2C receptor; test: cell-based; conditions: for Emax: read-out: 5-HT2C Function IP-formation % maximal effect
[15] = target: T4, hDAT (Homo sapiens, UniProt Q01959); test: [125I]RTI-55 binding, HEK-hDAT cells
[16] = target: T4, hDAT; test: [3H]Dopamine uptake, HEK-hDAT cells; type: cell-based
[17] = target: T4, hDAT; test: [3H]Dopamine release, HEK-hDAT cells; type: cell-based; conditions: HEK-hDAT cells
[18] = target: T5, hSERT (Homo sapiens, UniProt P31645); test: [125I]RTI-55 binding, HEK-hSERT cells
[19] = target: T5, hSERT; test: [3H]Serotonin uptake, HEK-hSERT cells; type: cell-based
[20] = target: T5, hSERT; test: [3H]Serotonin release, HEK-hSERT cells; type: cell-based
[21] = target: T6, hNET (Homo sapiens, UniProt P23975); test: biochemical; type: binding
[22] = target: T6, hNET; test: cell-based
[23] = target: T6, hNET; test: cell-based; remark: listed apart in the source
[24] = DMT-trained rats, 15 min pretreatment
[25] = METH-trained rats, 15 min pretreatment

T2 sequence (P28223 whole entry): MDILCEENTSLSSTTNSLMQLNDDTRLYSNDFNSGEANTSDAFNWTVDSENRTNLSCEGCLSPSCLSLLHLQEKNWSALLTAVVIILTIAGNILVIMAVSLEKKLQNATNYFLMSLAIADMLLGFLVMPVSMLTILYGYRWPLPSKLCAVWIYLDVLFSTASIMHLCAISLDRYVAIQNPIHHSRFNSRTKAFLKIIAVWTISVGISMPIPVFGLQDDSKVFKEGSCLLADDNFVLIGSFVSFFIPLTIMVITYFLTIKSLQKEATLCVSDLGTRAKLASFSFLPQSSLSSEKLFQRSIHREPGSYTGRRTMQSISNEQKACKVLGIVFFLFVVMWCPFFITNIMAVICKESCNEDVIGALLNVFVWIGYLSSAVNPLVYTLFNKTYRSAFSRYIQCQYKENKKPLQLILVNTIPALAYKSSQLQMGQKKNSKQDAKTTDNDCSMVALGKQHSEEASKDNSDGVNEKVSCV
T4 sequence (Q01959 whole entry): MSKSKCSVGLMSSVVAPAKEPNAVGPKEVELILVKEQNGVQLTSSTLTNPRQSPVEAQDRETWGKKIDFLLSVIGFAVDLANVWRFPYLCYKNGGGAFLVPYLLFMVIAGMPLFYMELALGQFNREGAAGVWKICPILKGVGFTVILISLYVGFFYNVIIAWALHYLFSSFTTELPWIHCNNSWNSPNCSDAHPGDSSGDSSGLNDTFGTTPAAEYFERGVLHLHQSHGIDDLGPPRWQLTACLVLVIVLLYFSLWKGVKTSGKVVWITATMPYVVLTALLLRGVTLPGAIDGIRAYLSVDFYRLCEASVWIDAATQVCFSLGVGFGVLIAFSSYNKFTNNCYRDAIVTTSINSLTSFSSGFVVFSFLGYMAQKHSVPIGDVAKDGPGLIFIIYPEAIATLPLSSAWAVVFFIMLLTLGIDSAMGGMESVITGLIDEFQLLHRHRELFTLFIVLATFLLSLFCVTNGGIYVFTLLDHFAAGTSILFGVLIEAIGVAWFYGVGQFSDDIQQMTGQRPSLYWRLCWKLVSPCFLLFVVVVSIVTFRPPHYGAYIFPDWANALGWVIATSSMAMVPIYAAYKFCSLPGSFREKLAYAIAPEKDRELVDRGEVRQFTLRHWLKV
T5 sequence (P31645 whole entry): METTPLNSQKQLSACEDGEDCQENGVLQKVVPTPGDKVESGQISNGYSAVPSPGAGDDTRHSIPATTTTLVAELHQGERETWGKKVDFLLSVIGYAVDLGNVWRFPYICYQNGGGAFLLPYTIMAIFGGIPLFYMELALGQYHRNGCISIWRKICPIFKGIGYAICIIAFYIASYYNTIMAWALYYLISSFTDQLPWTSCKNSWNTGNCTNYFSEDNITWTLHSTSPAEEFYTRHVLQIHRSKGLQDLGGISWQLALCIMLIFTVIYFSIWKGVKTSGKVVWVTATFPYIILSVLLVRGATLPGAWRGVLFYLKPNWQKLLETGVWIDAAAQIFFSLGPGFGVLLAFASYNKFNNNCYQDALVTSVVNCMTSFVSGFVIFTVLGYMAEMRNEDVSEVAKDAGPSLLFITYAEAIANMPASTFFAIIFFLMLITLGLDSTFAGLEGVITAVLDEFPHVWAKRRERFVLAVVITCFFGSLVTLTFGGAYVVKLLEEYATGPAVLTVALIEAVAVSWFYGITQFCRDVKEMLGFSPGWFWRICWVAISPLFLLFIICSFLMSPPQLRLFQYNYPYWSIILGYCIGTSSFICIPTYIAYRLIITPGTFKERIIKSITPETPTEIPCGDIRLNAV
T6 sequence (P23975 whole entry): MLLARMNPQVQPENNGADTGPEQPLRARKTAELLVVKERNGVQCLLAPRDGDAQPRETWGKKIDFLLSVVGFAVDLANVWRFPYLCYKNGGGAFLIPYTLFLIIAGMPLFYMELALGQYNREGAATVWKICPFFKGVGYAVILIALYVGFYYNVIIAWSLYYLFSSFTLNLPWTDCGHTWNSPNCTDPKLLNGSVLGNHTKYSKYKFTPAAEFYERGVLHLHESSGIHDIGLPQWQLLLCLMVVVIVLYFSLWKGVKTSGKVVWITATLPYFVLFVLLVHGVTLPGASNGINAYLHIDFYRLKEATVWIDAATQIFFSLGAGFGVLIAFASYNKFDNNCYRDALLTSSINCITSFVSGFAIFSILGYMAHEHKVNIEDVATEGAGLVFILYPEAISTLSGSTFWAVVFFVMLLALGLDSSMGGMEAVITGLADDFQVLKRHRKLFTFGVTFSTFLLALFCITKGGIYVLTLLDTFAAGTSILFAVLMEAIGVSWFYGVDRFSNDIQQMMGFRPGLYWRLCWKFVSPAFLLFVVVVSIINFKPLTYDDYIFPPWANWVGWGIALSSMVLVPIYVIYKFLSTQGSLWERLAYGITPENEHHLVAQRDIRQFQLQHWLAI

Structure (SMILES) | Onset of depressant effects (within, after injection) ([1]; mice, i.p.) [min] | Rate of responding at dose of maximum DAR [2, 24] [resp/s] | Rate of responding at dose of maximum DAR ([4]; 15 min pretreatment) [resp/s] | Maximum %DAR (drug-appropriate responding) ([4]; 15 min pretreatment) | Rate of responding at dose of maximum DAR ([5]; 15 min pretreatment) [resp/s] | Rate of responding at dose of maximum DAR [6, 25] [resp/s] | Ki [8] [nM] | EC50 [9] [nM] | Emax [9] [%] | Ki [10] [nM] | Emax [11] [%] | EC50 [12] [nM] | Emax [12] [%] | Ki [13] [nM] | EC50 [14] [nM] | Emax [14] [%] | Ki [15] [nM] | IC50 [16] [nM] | [3H]Dopamine release % METH maximal effect [17] | Ki [18] [nM] | also measured
COc1cc(CCN)c(OC)cc1Cl [2C-C, 2,5-dimethoxy-4-chlorophenethylamine] | ≤ 10 | 0.235±0.098 | 0.200±0.079 | 75% and 75±25 ^2% | 0.244±0.086 | 0.156±0.096 | 740 ± 170 | > 10000 | < 25 | 5.47 ± 0.68 | 64.2 ± 2.2 | 40.1 ± 4.7 | 102 ± 5.5 | 5.4 ± 1.2 | 24.2 ± 5.6 | 93.5 ± 6.5 | > 10000 | > 10000 | ND Minimal | > 10000 | Convulsions (mice affected/tested) ([1]; 100 mg/kg i.p., at 30 min): 2/8; Tremors (mice affected/tested) ([1]; 100 mg/kg i.p., at 30 min): 6/8; Lethality (mice) ([1]; 100 mg/kg i.p., within 120 min): 1/8; Dose(s) that decreased response rate [2]: 10 mg/kg; Rate of responding at dose of maximum DAR ([3]; 15 min pretreatment): 0.366±0.070 resp/s; Maximum %DAR (drug-appropriate responding) ([3]; 15 min pretreatment): 82±16 %; Dose(s) that decreased response rate ([4]; rat, in vivo): 10 mg/kg; Maximum %DAR (drug-appropriate responding) ([5]; 15 min pretreatment): 89±11 %; Dose(s) that decreased response rate [5]: 2.5 mg/kg; Dose(s) that decreased response rate ([6]; rat, in vivo): 25 mg/kg; Reddening of the extremities (rats affected/tested) [7]: 3/3; Salivation (rats affected/tested) [7]: 1/3; EC50 [11]: 13.9 ± 6.1 nM; IC50 [19]: > 9600 nM; [3H]Serotonin release % PCA maximal effect [20]: ND Minimal; Ki [21]: > 7600 nM; IC50 [22]: > 9500 nM; [3H]NE release % METH maximal effect [23]: ND Minimal
COc1cc(CCN)c(OC)cc1I [2C-I, 2,5-dimethoxy-4-iodophenethylamine] | ≤ 10 | 0.480±0.092 | 0.233±0.075 | 80±20 % | 0.453±0.169 | 0.447±0.058 | 970 ± 430 | 4900 ± 2000 | 102 ± 4.7 | 9.3 ± 3.2 | 32.5 ± 1.5 | 7.9 ± 2.2 | 82.4 ± 6.4 | 10.2 ± 1.7 | 2.8 ± 1 | 79 ± 16 | > 10000 | > 9600 | ND Minimal | 950 ± 440 | Doses producing depression of locomotor activity ([1]; mice, i.p.): 3 to 30 mg/kg; Duration of depressant effects ([1]; mice, i.p.): 30 to 60 min; Maximum %DAR (drug-appropriate responding) ([5]; 15 min pretreatment): 65% and 65±21 ^1%; Dose(s) that decreased response rate [5]: 2.5 to 10 mg/kg; Maximum %DAR (drug-appropriate responding) ([6]; METH-trained rats, i.p., 15 min pretreatment, at dose of maximum DAR): 38% and 38±17 ^1%; IC50 [19]: 5600 ± 2100 nM; [3H]Serotonin release % PCA maximal effect [20]: ND Minimal; Ki [21]: > 10000 nM; IC50 [22]: > 8200 nM; [3H]NE release % METH maximal effect [23]: ND Minimal
COc1cc(CC(C)N)c(OC)cc1Cl (centres unmarked) [DOC, 2,5-Dimethoxy-4-chloroamphetamine] | ≤ 10 | 0.354±0.125 | 0.402±0.049 | 81±16 % | 0.449±0.104 | 0.876±0.330 | > 9200 | > 10000 | < 10 | 4 ± 0.45 | 81 ± 16 | 10.5 ± 2.6 | 102 ± 4.2 | 3.57 ± 0.56 | 14.6 ± 3 | 97 ± 19 | > 10000 | > 10000 | ND Minimal | > 10000 | Duration of depressant effects ([1]; mice, i.p.): 30 to 80 min; Rate of responding at dose of maximum DAR ([2]; DMT-trained rats, 60 min pretreatment): 0.777±0.095 resp/s; Maximum %DAR (drug-appropriate responding) ([2]; DMT-trained rats, i.p., 60 min pretreatment, at dose of maximum DAR): 83±17 %; Dose(s) that decreased response rate [2]: ≥ 1 mg/kg; Rate of responding at dose of maximum DAR ([3]; 15 min pretreatment): 0.708±0.072 resp/s; Rate of responding at dose of maximum DAR ([3]; 60 min pretreatment): 0.493±0.058 resp/s; Maximum %DAR (drug-appropriate responding) ([3]; 15 min pretreatment): 83±17 %; Maximum %DAR (drug-appropriate responding) ([3]; 60 min pretreatment): 87±13 %; Rate of responding at dose of maximum DAR ([4]; 60 min pretreatment): 0.410±0.139 resp/s; Maximum %DAR (drug-appropriate responding) ([4]; 60 min pretreatment): 95±3 %; Rate of responding at dose of maximum DAR ([5]; 60 min pretreatment): 0.356±0.141 resp/s; Maximum %DAR (drug-appropriate responding) ([5]; 60 min pretreatment): 60% and 60±24 ^2%; Rate of responding at dose of maximum DAR ([6]; METH-trained rats, 60 min pretreatment): 0.276±0.098 resp/s; EC50 [11]: 2.91 ± 0.66 nM; IC50 [19]: > 8600 nM; [3H]Serotonin release % PCA maximal effect [20]: ND Minimal; Ki [21]: > 7700 nM; IC50 [22]: > 8400 nM; [3H]NE release % METH maximal effect [23]: ND Minimal
